In patent publication US20090023731A1, “SOLUBLE EPOXIDE HYDROLASE INHIBITORS” (Arete Therapeutics, Inc., priority 2007, published 2009):

How the values were obtained:
[1] = tested on: soluble epoxide hydrolase (sEH); experiment: Fluorescent assay for mouse and human soluble epoxide hydrolase (CMNPC substrate); assay type: biochemical
Procedure: Recombinant mouse sEH (MsEH) and human sEH (HsEH) were produced in a baculovirus expression system as previously reported. […] The expressed proteins were purified from cell lysate by affinity chromatography. […] Protein concentration was quantified using the Pierce BCA assay using bovine serum albumin as the calibrating standard.
The IC50s for each inhibitor were according to the following procedure:
Bis/Tris HCl 25 mM pH 7.0 containing 0.1 mg/mL of BSA (buffer A) CMNPC at 0.25 mM in DMSO.
Mother solution of enzyme in buffer A (Mouse sEH at 6 μg/mL and Human sEH at 5 μg/mL). Inhibitor dissolved in DMSO at the appropriate concentration.
In a black 96 well plate, fill all the wells with 150 μL of buffer A.
Add 2 μL of DMSO in well A2 and A3, and then add 2 μL of inhibitor solution in A1 and A4 through A12.
Add […] of buffer A in row A, then mix several time and transfer […] to row B. Repeat this operation up to row H. The […] removed from row H is discarded.
Add […] of buffer A in column 1 and 2, then add […] of enzyme solution to column 3 to 12.
Incubate the plate for 5 minutes in the plate reader at 30° C.
During incubation prepare the working solution of substrate by mixing 3.68 mL of buffer A (4×0.920 mL) with 266 μL (2×133 μL) of substrate solution).
The velocities are used to analyze and calculate the IC50s.

SMILES | melting point | % Inh ([1]; inhibitor conc. 50 nM) | also measured
O=C(Nc1ccc(Oc2ccc(C(=O)O)cc2)cc1)NC12CC3CC(CC(C3)C1)C2 [Compound 65, 4-(4-(3-(adamantyl)ureido)phenoxy)benzoic acid] | 162 to 166 °C | – | % Inh ([1]; inhibitor conc. 2000 nM): 100%
O=C(Nc1ccc(Oc2ccc(C(=O)O)cc2)cc1)Nc1cccc(C(F)(F)F)c1 [Compound 67, 4-(4-(3-(3-(trifluoromethyl)phenyl)ureido)phenoxy)benzoic acid] | 318 °C | – | % Inh ([1]; inhibitor conc. 2000 nM): 99%
O=C(Nc1ccc(Oc2ccccc2)cc1)Nc1ccc(C(F)(F)F)cc1 [Compound 39, 1-(4-Phenoxy-phenyl)-3-(4-trifluoromethyl-phenyl)-urea] | 211 to 213 °C | 90% | –
O=C(Nc1ccc(Oc2cccc(C(=O)O)c2)cc1)NC12CC3CC(CC(C3)C1)C2 [Compound 59, 3-(4-(3-Adamantan-1-ylureido)phenoxy)benzoic acid] | 185 to 187 °C | – | % Inh ([1]; inhibitor conc. 5000 nM): 99%
O=C(Nc1ccc(F)cc1)Nc1cccc(OCc2ccccc2)c1 [Compound 38, 1-(3-Benzyloxy-phenyl)-3-(4-fluoro-phenyl)-urea] | 187 to 189 °C | 93% | –
O=C(Nc1ccc(C(F)(F)F)cc1)Nc1cccc(Oc2ccccc2)c1 [Compound 40, 1-(3-Phenoxy-phenyl)-3-(4-trifluoromethyl-phenyl)-urea] | 178 to 181 °C | 96% | –
O=C(Nc1cccc(OCCCN2CCOCC2)c1)Nc1c(F)cc(F)cc1F [Compound 6, 1-[3-(3-Morpholin-4-yl-propoxy)-phenyl]-3-(2,4,6-trifluoro-phenyl)-urea] | – | – | % Inh ([1]; inhibitor conc. 50000 nM): 92%
O=C(Nc1cccc(OCCCN2CCOCC2)c1)Nc1c(Cl)cccc1Cl [Compound 3, 1-(2,6-Dichloro-phenyl)-3-[3-(3-morpholin-4-yl-propoxy)-phenyl]-urea] | – | – | % Inh ([1]; inhibitor conc. 50000 nM): 90%
CC(C)(C)CC(=O)Nc1cccc(OCCCN2CCOCC2)c1 [Compound 44, 3,3-Dimethyl-N-[3-(3-morpholin-4-yl-propoxy)-phenyl]-butyramide] | – | – | % Inh ([1]; inhibitor conc. 5000 nM): 70%
O=C(Nc1ccc(C(F)(F)F)cc1)Nc1cccc(Oc2cccc(C(=O)O)c2)c1 [Compound 71, 3-(3-(3-(4-(trifluoromethyl)phenyl)ureido)phenoxy)benzoicacid] | – | – | % Inh ([1]; inhibitor conc. 2000 nM): 98%
O=C(CC12CC3CC(CC(C3)C1)C2)NC1CCCC(OCCCN2CCOCC2)C1 (centres unmarked) [Compound 49, 2-Adamantan-1-yl-N-[3-(3-morpholin-4-yl-propoxy)-cyclohexyl]-acetamide] | – | 79% | –
O=C(Nc1cccc(OCc2ccccc2)c1)NC12CC3CC(CC(C3)C1)C2 [Compound 57, 1-Adamantan-1-yl-3-(3-benzyloxy-phenyl)-urea] | 232 to 235 °C | 98% | –
O=C(Nc1ccc(F)c(OCCCN2CCOCC2)c1)NC1CCCCC1 [Compound 54, 1-Cyclohexyl-3-[4-fluoro-3-(3-morpholin-4-yl-propoxy)-phenyl]-urea] | – | 83% | –
O=C(Cc1ccc(C(F)(F)F)cc1)Nc1ccc(OCCCN2CCOCC2)cc1 [Compound 27, N-[4-(3-Morpholin-4-yl-propoxy)-phenyl]-2-(4-trifluoromethyl-phenyl)-acetamide] | – | – | % Inh ([1]; inhibitor conc. 500 nM): 83%
O=C(Nc1ccc(OCCCN2CCOCC2)cc1)NC1CCCCC1 [Compound 45, 1-Cyclohexyl-3-[4-(3-morpholin-4-yl-propoxy)-phenyl]-urea] | – | 79% | –
O=C(Nc1cccc(Oc2cccc(C(=O)O)c2)c1)NC12CC3CC(CC(C3)C1)C2 [Compound 70, 3-(3-(3-(adamantyl)ureido)phenoxy)benzoicacid] | – | – | % Inh ([1]; inhibitor conc. 2000 nM): 95%

SMILES | melting point | % Inh ([1]; inhibitor conc. 50 nM) | also measured
O=C(Nc1ccc(C(F)(F)F)cc1)Nc1cccc(OCc2ccccc2)c1 [Compound 37, 1-(3-Benzyloxy-phenyl)-3-(4-trifluoromethyl-phenyl)-urea] | 208 to 210 °C | 99% | –
O=C(Nc1ccc(F)cc1)Nc1cccc(OCCCN2CCOCC2)c1 [Compound 2, 1-(4-Fluoro-phenyl)-3-[3-(3-morpholin-4-yl-propoxy)-phenyl]-urea] | – | 82% | –
CC(C)(C)NC(=O)Nc1cccc(OCCCN2CCOCC2)c1 [Compound 42, 1-tert-Butyl-3-[3-(3-morpholin-4-yl-propoxy)-phenyl]-urea] | – | – | % Inh ([1]; inhibitor conc. 5000 nM): 79%
O=C(Cc1ccc(OC(F)(F)F)cc1)Nc1cccc(OCCCN2CCOCC2)c1 [Compound 23, N-[3-(3-Morpholin-4-yl-propoxy)-phenyl]-2-(4-trifluoromethoxy-phenyl)-acetamide] | – | – | % Inh ([1]; inhibitor conc. 500 nM): 86%
O=C(Nc1cccc(OCCCN2CCOCC2)c1)C12CC3CC(CC(C3)C1)C2 [Compound 55, Adamantane-1-carboxylicacid [3-(3-morpholin-4-yl-propoxy)-phenyl]-amide] | – | – | % Inh ([1]; inhibitor conc. 5000 nM): 90%
O=C(Nc1ccc(C(F)(F)F)cc1)Nc1cccc(Oc2ccc(C(=O)O)cc2)c1 [Compound 69, 4-(3-(3-(4-(trifluoromethyl)phenyl)ureido)phenoxy)benzoicacid] | – | – | % Inh ([1]; inhibitor conc. 2000 nM): 100%
O=C(Nc1ccc(Oc2ccc(C(=O)O)cc2)cc1)Nc1ccc(C(F)(F)F)cc1 [Compound 66, 4-(4-(3-(4-(trifluoromethyl)phenyl)ureido)phenoxy)benzoic acid] | > 400 °C | – | % Inh ([1]; inhibitor conc. 2000 nM): 100%
O=C(Nc1ccccc1)Nc1cccc(OCCCN2CCOCC2)c1 [Compound 1, 1-[3-(3-Morpholin-4-yl-propoxy)-phenyl]-3-phenyl-urea] | – | – | % Inh ([1]; inhibitor conc. 500 nM): 62%
O=C(Nc1ccccc1)Nc1ccc(F)c(OCCCN2CCOCC2)c1 [Compound 29, 1-[4-Fluoro-3-(3-morpholin-4-yl-propoxy)-phenyl]-3-phenyl-urea] | – | – | % Inh ([1]; inhibitor conc. 500 nM): 73%
O=C(Nc1cccc(Oc2ccc(C(=O)O)cc2)c1)NC12CC3CC(CC(C3)C1)C2 [Compound 68] | 152 to 154 °C | – | –
O=C(Nc1cccc(OCCCN2CCOCC2)c1)Nc1c(F)c(F)c(F)c(F)c1F [Compound 7, 1-[3-(3-Morpholin-4-yl-propoxy)-phenyl]-3-pentafluorophenyl-urea] | – | – | % Inh ([1]; inhibitor conc. 5000 nM): 87%
O=C(Nc1cccc(OCCCN2CCOCC2)c1)Nc1ccc(F)c(F)c1 [Compound 4, 1-(3,4-Difluoro-phenyl)-3-[3-(3-morpholin-4-yl-propoxy)-phenyl]-urea] | – | 75% | –
O=C(Nc1cccc(OCCCN2CCOCC2)c1)Nc1cccc(C(F)(F)F)c1 [Compound 10, 1-[3-(3-Morpholin-4-yl-propoxy)-phenyl]-3-(3-trifluoromethyl-phenyl)-urea] | – | 74% | –
O=C(NCCc1ccc(OCc2ccccc2)cc1)NCCC12CC3CC(CC(C3)C1)C2 [Compound 72, 1-(4-(benzyloxy)phenethyl)-3-(adamantylethyl)urea] | – | – | % Inh ([1]; inhibitor conc. 200 nM): 89%
S=C(Nc1cccc(OCCCN2CCOCC2)c1)NC12CC3CC(CC(C3)C1)C2 [Compound 61] | – | – | % Inh ([1]; inhibitor conc. 500 nM): 96%
O=C(Cc1ccc(C(F)(F)F)cc1)Nc1cccc(OCCCN2CCOCC2)c1 [Compound 24, N-[3-(3-Morpholin-4-yl-propoxy)-phenyl]-2-(4-trifluoromethyl-phenyl)-acetamide] | – | – | % Inh ([1]; inhibitor conc. 500 nM): 88%
